Measurements as given in the supplement of paper PMC10307832.

Columns and labels:
Experiment in all cases: relative viability (nuclei count vs DMSO), 5 days (fraction); higher = more cells survive
201T = test system: 201T
Method in brief: (§1)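 Cells from lung cancer lines were seeded into 1536-well plates and, one day later, dosed by pin tool. Treatments were either a single drug or a fixed dose of an anchor drug with five library-drug doses (not always all listed) in √10 steps. After 5 days, nuclei were stained in a one-step fixation (final 0.05% Triton X-100, 1% formaldehyde, 1 ug/ml Hoechst) and counted on 4× images, and relative viability is the treated-to-vehicle nuclei ratio, as the median of duplicate plates.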

A-427 = test system: A-427
Method in brief: as §1

BEN = test system: BEN
Method in brief: as §1

COR-L 105 = test system: COR-L 105
Method in brief: as §1

COR-L23 = test system: COR-L23
Method in brief: as §1

EKVX = test system: EKVX
Method in brief: as §1

HARA = test system: HARA
Method in brief: as §1

HCC-15 = test system: HCC-15
Method in brief: as §1

HCC-44 = test system: HCC-44
Method in brief: as §1

HCC-827 = test system: HCC-827
Method in brief: as §1

LK-2 = test system: LK-2
Method in brief: as §1

NCI-H1437 = test system: NCI-H1437
Method in brief: as §1

NCI-H1666 = test system: NCI-H1666
Method in brief: as §1

NCI-H1792 = test system: NCI-H1792
Method in brief: as §1

NCI-H1975 = test system: NCI-H1975
Method in brief: as §1

NCI-H23 = test system: NCI-H23
Method in brief: as §1

NCI-H358 = test system: NCI-H358
Method in brief: as §1

NCI-H441 = test system: NCI-H441
Method in brief: as §1

NCI-H596 = test system: NCI-H596
Method in brief: as §1

NCI-H650 = test system: NCI-H650
Method in brief: as §1

NCI-H838 = test system: NCI-H838
Method in brief: as §1

SK-MES-1 = test system: SK-MES-1
Method in brief: as §1

`CC1(C)CCC(c2ccc(Cl)cc2)=C(CN2CCN(c3ccc(C(=O)NS(=O)(=O)c4ccc(N[C@H](CCN5CCOCC5)CSc5ccccc5)c(S(=O)(=O)C(F)(F)F)c4)cc3)CC2)C1` [Navitoclax] + CS(=O)(=O)N1CCN(Cc2cc3nc(-c4cccc5[nH]ncc45)nc(N4CCOCC4)c3s2)CC1 [Pictilisib] (partner 1 µM) showed a relative viability (201T; first compound 0.005 µM) of 0.661, a relative viability (201T; first compound 0.01581 µM) of 0.738 and a relative viability (201T; first compound 0.05 µM) of 0.677. The relative viability (201T; first compound 0.1581 µM) was 0.65, the relative viability (201T; first compound 0.5 µM) was 0.707 and the relative viability (A-427; first compound 0.005 µM) was 0.675. It also gave a relative viability (A-427; first compound 0.01581 µM) of 0.675, a relative viability (A-427; first compound 0.05 µM) of 0.659 and a relative viability (A-427; first compound 0.1581 µM) of 0.753. For the same compound, the relative viability (A-427; first compound 0.5 µM) was 0.799, the relative viability (BEN; first compound 0.005 µM) was 0.548 and the relative viability (BEN; first compound 0.01581 µM) was 0.678. It also gave a relative viability (BEN; first compound 0.05 µM) of 0.625, a relative viability (BEN; first compound 0.1581 µM) of 0.602 and a relative viability (BEN; first compound 0.5 µM) of 0.364. It also gave a relative viability (COR-L 105; first compound 0.005 µM) of 0.352, a relative viability (COR-L 105; first compound 0.01581 µM) of 0.45 and a relative viability (COR-L 105; first compound 0.05 µM) of 0.41. The relative viability (COR-L 105; first compound 0.1581 µM) was 0.368, the relative viability (COR-L 105; first compound 0.5 µM) was 0.308 and the relative viability (COR-L23; first compound 0.005 µM) was 0.733. It also gave a relative viability (COR-L23; first compound 0.01581 µM) of 0.919, a relative viability (COR-L23; first compound 0.05 µM) of 0.818 and a relative viability (COR-L23; first compound 0.1581 µM) of 0.763. It also gave a relative viability (COR-L23; first compound 0.5 µM) of 0.932, a relative viability (EKVX; first compound 0.005 µM) of 0.487 and a relative viability (EKVX; first compound 0.01581 µM) of 0.611. It also gave a relative viability (EKVX; first compound 0.05 µM) of 0.427, a relative viability (EKVX; first compound 0.1581 µM) of 0.41 and a relative viability (EKVX; first compound 0.5 µM) of 0.452. It also gave a relative viability (HARA; first compound 0.005 µM) of 0.389, a relative viability (HARA; first compound 0.01581 µM) of 0.372 and a relative viability (HARA; first compound 0.05 µM) of 0.384. It also gave a relative viability (HARA; first compound 0.1581 µM) of 0.425, a relative viability (HARA; first compound 0.5 µM) of 0.381 and a relative viability (HCC-15; first compound 0.005 µM) of 0.733. The relative viability (HCC-15; first compound 0.01581 µM) was 0.769, the relative viability (HCC-15; first compound 0.05 µM) was 0.614 and the relative viability (HCC-15; first compound 0.1581 µM) was 0.726. It also gave a relative viability (HCC-15; first compound 0.5 µM) of 0.667, a relative viability (HCC-44; first compound 0.005 µM) of 0.656 and a relative viability (HCC-44; first compound 0.01581 µM) of 0.641. The relative viability (HCC-44; first compound 0.05 µM) was 0.849, the relative viability (HCC-44; first compound 0.1581 µM) was 0.57 and the relative viability (HCC-44; first compound 0.5 µM) was 0.456. For the same compound, the relative viability (HCC-827; first compound 0.005 µM) was 1.12, the relative viability (HCC-827; first compound 0.01581 µM) was 1 and the relative viability (HCC-827; first compound 0.05 µM) was 0.933. It also gave a relative viability (HCC-827; first compound 0.1581 µM) of 0.78, a relative viability (HCC-827; first compound 0.5 µM) of 0.975 and a relative viability (LK-2; first compound 0.005 µM) of 0.612. It also gave a relative viability (LK-2; first compound 0.01581 µM) of 0.559, a relative viability (LK-2; first compound 0.05 µM) of 0.536 and a relative viability (LK-2; first compound 0.1581 µM) of 0.657. The relative viability (LK-2; first compound 0.5 µM) was 0.511, the relative viability (NCI-H1437; first compound 0.005 µM) was 0.409 and the relative viability (NCI-H1437; first compound 0.01581 µM) was 0.537. It also gave a relative viability (NCI-H1437; first compound 0.05 µM) of 0.501, a relative viability (NCI-H1437; first compound 0.1581 µM) of 0.445 and a relative viability (NCI-H1437; first compound 0.5 µM) of 0.477. It also gave a relative viability (NCI-H1666; first compound 0.005 µM) of 0.562, a relative viability (NCI-H1666; first compound 0.01581 µM) of 0.609 and a relative viability (NCI-H1666; first compound 0.05 µM) of 0.503. It also gave a relative viability (NCI-H1666; first compound 0.1581 µM) of 0.394, a relative viability (NCI-H1666; first compound 0.5 µM) of 0.475 and a relative viability (NCI-H1792; first compound 0.005 µM) of 0.307. It also gave a relative viability (NCI-H1792; first compound 0.01581 µM) of 0.283, a relative viability (NCI-H1792; first compound 0.05 µM) of 0.163 and a relative viability (NCI-H1792; first compound 0.1581 µM) of 0.285. For the same compound, the relative viability (NCI-H1792; first compound 0.5 µM) was 0.29, the relative viability (NCI-H1975; first compound 0.005 µM) was 0.295 and the relative viability (NCI-H1975; first compound 0.01581 µM) was 0.32. For the same compound, the relative viability (NCI-H1975; first compound 0.05 µM) was 0.304, the relative viability (NCI-H1975; first compound 0.1581 µM) was 0.287 and the relative viability (NCI-H1975; first compound 0.5 µM) was 0.235. It also gave a relative viability (NCI-H23; first compound 0.005 µM) of 0.479, a relative viability (NCI-H23; first compound 0.01581 µM) of 0.498 and a relative viability (NCI-H23; first compound 0.05 µM) of 0.483. The relative viability (NCI-H23; first compound 0.1581 µM) was 0.433, the relative viability (NCI-H23; first compound 0.5 µM) was 0.504 and the relative viability (NCI-H358; first compound 0.005 µM) was 0.347. For the same compound, the relative viability (NCI-H358; first compound 0.01581 µM) was 0.352, the relative viability (NCI-H358; first compound 0.05 µM) was 0.307 and the relative viability (NCI-H358; first compound 0.1581 µM) was 0.379. The relative viability (NCI-H358; first compound 0.5 µM) was 0.336, the relative viability (NCI-H441; first compound 0.005 µM) was 0.441 and the relative viability (NCI-H441; first compound 0.01581 µM) was 0.606. For the same compound, the relative viability (NCI-H441; first compound 0.05 µM) was 0.433, the relative viability (NCI-H441; first compound 0.1581 µM) was 0.529 and the relative viability (NCI-H441; first compound 0.5 µM) was 0.458. For the same compound, the relative viability (NCI-H596; first compound 0.005 µM) was 0.405, the relative viability (NCI-H596; first compound 0.01581 µM) was 0.399 and the relative viability (NCI-H596; first compound 0.05 µM) was 0.398. It also gave a relative viability (NCI-H596; first compound 0.1581 µM) of 0.308, a relative viability (NCI-H596; first compound 0.5 µM) of 0.218 and a relative viability (NCI-H650; first compound 0.005 µM) of 0.765. The relative viability (NCI-H650; first compound 0.01581 µM) was 0.948, the relative viability (NCI-H650; first compound 0.05 µM) was 0.869 and the relative viability (NCI-H650; first compound 0.1581 µM) was 0.972. It also gave a relative viability (NCI-H650; first compound 0.5 µM) of 0.448, a relative viability (NCI-H838; first compound 0.005 µM) of 0.435 and a relative viability (NCI-H838; first compound 0.01581 µM) of 0.571. The relative viability (NCI-H838; first compound 0.05 µM) was 0.541, the relative viability (NCI-H838; first compound 0.1581 µM) was 0.494 and the relative viability (NCI-H838; first compound 0.5 µM) was 0.486. It also gave a relative viability (SK-MES-1; first compound 0.005 µM) of 0.458, a relative viability (SK-MES-1; first compound 0.01581 µM) of 0.48 and a relative viability (SK-MES-1; first compound 0.05 µM) of 0.355. It also gave a relative viability (SK-MES-1; first compound 0.1581 µM) of 0.321 and a relative viability (SK-MES-1; first compound 0.5 µM) of 0.334.
